# Source: patent US20250186404A1, “METHODS OF USING A (THIAZOLYL)BENZENESULFONAMIDE DERIVATIVE” (Cyteir Therapeutics, Inc., priority 2023, published 2025)
# How the values were obtained:
# [1] = system: Daudi (Burkitt Lymphoma) cells; test: Intracellular Lactate Accumulation Assay (Lactate-Glo); format: cell-based, human
# Method: Intracellular lactate accumulation after a 2 h treatment with compounds of the present invention was measured in Daudi (Burkitt Lymphoma) cells using the Lactate-Glo Assay (Promega).
# Daudi cells were seeded at 7,500 cells per well in 150 μL of growth medium (RPMI-1640 with 2 mM GlutaMAX+10% FBS) in clear, 96-well, flat-bottom microplates, and incubated overnight (37° C., 5% CO2). Compounds of the present invention were added using an INTEGRA VIAFLO 96 (8 point, 3-fold serial dilution, top concentration 1, 10, or 20 μM, 0.4% final DMSO concentration). After a 2 h incubation (37° C., 5% CO2) microplates containing cells were washed twice with 150 μL ice-cold PBS, resuspended in 25 μL ice-cold PBS containing 12.5 μL 0.6N HCl, and placed on a microplate shaker for 5 min to lyse the cells. Following lysis, 12.5 μL 1M Trizma base was added to neutralize the suspension, and microplates were returned to the microplate shaker for 1 min. Plates were sealed and stored at −20° C. until further processing. On the day of the assay, microplates were thawed for 45 min at room temperate and 50 μL Lactate Detection Reagent (prepared as specified by manufacturer) was added to each well. Microplates were placed on a plate shaker for 1 min and incubated at room temperature for 1 h. Luminescence was measured using a BioTek Cytation 5 Multi-Mode Reader. Curve fitting and calculation of EC50 was performed using GraphPad Prism.
# In addition, Daudi human lymphoma cells were treated with a titration of Compound 67A for 4 h, then intracellular lactate was measured via LactateGlo (FIG. 2). Compound 67A treatment elevates intracellular lactate (FIGS. 3-5). […] Inhibiting MCT function in glycolytic cancer cells leads to an accumulation of intracellular lactate that impairs glycolysis and inhibits tumor cell growth, thereby making MCTs an attractive target for cancer therapy. Compound 67A inhibits the import of MCT ligands into cells, and induces dose-dependent intracellular lactate accumulation that correlates with cytotoxicity. MCT4 expression inversely correlates with lactate accumulation and the extent of Compound 67A cytotoxicity in cells.
# Pfeiffer = test: Compound 67A sensitivity of CRISPR screen cell line Pfeiffer; format: cell-based; conditions: Homo sapiens, Lymphoma
# Source text: (§1) Three cell lines with varying sensitivities to Compound 67A were utilized in the CRISPR screen (Table 3, FIG. 11).
# T47D = test: Compound 67A sensitivity / cell growth inhibition of CRISPR screen cell line T47D; format: cell-based
# Source text: as §1
# Screen hits (FDR<0.2) were identified using the drugZ algorithm (FIG. 13). MCT4 was the most significant hit consistent between the SU8686 and T47D cell lines, sensitizing both lines to Compound 67A treatment.
# SU8686 = test: Compound 67A sensitivity of CRISPR screen cell line SU8686; format: cell-based; conditions: Homo sapiens, SU.86.86; SU8686, Pancreatic Cancer
# Source text: as §1
# MCT1/BSG complex = target: T1, MCT1/BSG complex (Homo sapiens, UniProt P53985); test: Microscale thermophoresis (MST) direct binding; conditions: purified hexahistidine-tagged MCT1/BSG complex, read-out: Kd, binding to MCT1/basigin
# T1 sequence (P53985 1-500): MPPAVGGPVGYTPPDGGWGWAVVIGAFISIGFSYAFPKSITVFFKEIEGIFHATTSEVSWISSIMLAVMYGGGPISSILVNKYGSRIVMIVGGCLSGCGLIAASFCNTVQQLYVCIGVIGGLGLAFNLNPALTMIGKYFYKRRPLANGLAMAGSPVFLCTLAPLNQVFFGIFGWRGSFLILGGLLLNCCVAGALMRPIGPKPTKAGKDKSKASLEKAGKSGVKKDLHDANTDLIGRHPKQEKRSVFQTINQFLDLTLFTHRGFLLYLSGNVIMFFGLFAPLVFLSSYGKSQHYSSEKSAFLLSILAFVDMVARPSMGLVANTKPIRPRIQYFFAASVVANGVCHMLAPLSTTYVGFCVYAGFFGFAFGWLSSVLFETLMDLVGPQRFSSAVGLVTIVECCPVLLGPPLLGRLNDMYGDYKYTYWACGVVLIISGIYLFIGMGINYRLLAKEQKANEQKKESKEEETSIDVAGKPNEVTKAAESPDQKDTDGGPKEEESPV
# T1 sequence (P35613 140-385 partner limits assumed): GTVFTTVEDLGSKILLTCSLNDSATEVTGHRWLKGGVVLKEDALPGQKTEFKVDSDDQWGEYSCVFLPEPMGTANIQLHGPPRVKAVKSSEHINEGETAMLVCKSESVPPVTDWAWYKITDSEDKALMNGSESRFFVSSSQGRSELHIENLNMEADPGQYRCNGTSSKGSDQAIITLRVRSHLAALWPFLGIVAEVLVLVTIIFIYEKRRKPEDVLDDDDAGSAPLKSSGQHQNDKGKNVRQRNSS
# Source text: Microscale thermophoresis (MST) monitors the solution phase change in protein fluorescence and mobility in response to a temperature gradient created with an infrared laser. The method is compatible with detergent solubilized proteins and enables measurement of direct ligand binding.
# Purified hexahistidine-tagged MCT1/BSG complex was mixed with a hexahistidine interacting fluorescent dye and MST was monitored as a function of compound concentration.
# [2] = system: Daudi human lymphoma cells; test: Reversal of 3-bromopyruvate-induced cytotoxicity; format: cell-based; conditions: 3-bromopyruvate (MCT1 substrate)
# Method: Compound 67A data across 439 cell lines was cross-compared with available DepMap gene essentiality data and gene expression data. A genome-wide CRISPR screen identified genes that influenced sensitivity to Compound 67A. MDCKII cells expressing human MCT1 were treated with Compound 67A and transport of the MCT1 substrate, 2-thiophene-glyoxylic acid, was quantified by LC-MS. Compound 67A-mediated reversal of cytotoxicity induced by 3-bromopyruvate, an MCT1 substrate, was measured in Daudi human lymphoma cells. Lactate was measured using Lactate-Glo. Extracellular acidification and O2 consumption were measured by Seahorse.
# [3] = system: ES2 ovarian cancer cell line; test: ES2 cytotoxicity (Cytotox Green) and cell viability (CellTiterGlo, NCI method); format: cell-based
# Method: MCT4 was over-expressed in ES2 cells following lentiviral transduction. Cell viability was assessed in empty vector (EV) control and MCT4 over-expressing cells after Compound 67A treatment and relative cell growth was quantified using the NCI method (FIG. 10).
# The ES2 ovarian cancer cell line was treated with a titration of Compound 67A, and cytotoxicity was assessed after 24 hours of treatment with Cytotox Green and cell viability after 96 hours with CellTiterGlo (FIG. 18).
# Raji lymphoma cells = test: Seahorse XF ECAR and OCR measurement; format: cell-based; conditions: Seahorse XF Analyzer
# Method: The utilization of glycolysis and oxidative phosphorylation (OXPHOS) were measured by the extracellular acidification rate (ECAR) and oxygen consumption rate (OCR), respectively, in Raji lymphoma cells via the Seahorse XF Analyzer.
compound,measurement,setting,value
CC(C)OC(=O)Nc1ccc(-c2cnc([C@H]3CC[C@H](NC(=O)OC(C)C)CC3)s2)c(S(=O)(=O)NC(C)(C)C)c1 [Compound 67A],IC50,"[1]; Daudi human lymphoma cells, 4 h treatment, LactateGlo, read-out: induces lactate accumulation, IC50",370 nM
same,EC50,"[1]; Homo sapiens, Daudi cells, 2 h treatment, intracellular lactate accumulation, read-out: LactateGlo EC50",150 to 1000 nM
same,IC50,Pfeiffer,520 nM
same,IC50,"T47D; Homo sapiens, T47D, Breast Cancer",5860 nM
same,effect of MCT4 knockout on cell growth inhibition,"T47D; T47D cells, MCT4 knockout",enhanced Compound 67A-mediated cell growth inhibition
same,IC50,SU8686,> 20000 nM
same,Kd,MCT1/BSG complex,89 nM
same,protection from cytotoxic effects of 3-bromopyruvate,[2],protected cells from the cytotoxic effects of 3-bromopyruvate
same,cytotoxic response,"[3]; ES2, Cytotox Green after 24 hours and CellTiterGlo after 96 hours",induced a clear cytotoxic response
same,effect of MCT4 over-expression on anti-proliferative effects,"[3]; ES2 MCT4 over-expressing vs empty vector control, NCI method",significantly reduced Compound 67A-mediated anti-proliferative effects
same,extracellular acidification rate (ECAR),Raji lymphoma cells,dose-dependent decrease in ECAR
same,oxygen consumption rate (OCR),Raji lymphoma cells,concomitant increase in OCR
